Test results as given in publication PMC7017600 (Antiviral research, 2019).
Where a name gives a salt, the structure may show the parent alone. Read-outs that look alike come from different tables or passages of the source.

Columns and labels:
BPLF1 1–246 [1] = target: T1, BPLF1 1–246 (Epstein-Barr virus, UniProt P03186)
BPLF1 1–246 [2] = target: T1, BPLF1 1–246; assay: K63-linked ubiquitin chain cleavage assay; format: biochemical, Epstein Barr Virus (EBV); conditions: 10 μM inhibitor, 25 nM BPLF1 1–246, 2 μg K63-linked chains, overnight 37 °C, SDS gel
BPLF1 1–246 [3] = target: T1, BPLF1 1–246; assay: biochemical
Atax3L = target: T2, Atax3L (Homo sapiens, UniProt Q9H3M9); assay: Suramin selectivity, Ub-Rhodamine 110 assay; format: biochemical
T2 sequence (Q9H3M9 1-355): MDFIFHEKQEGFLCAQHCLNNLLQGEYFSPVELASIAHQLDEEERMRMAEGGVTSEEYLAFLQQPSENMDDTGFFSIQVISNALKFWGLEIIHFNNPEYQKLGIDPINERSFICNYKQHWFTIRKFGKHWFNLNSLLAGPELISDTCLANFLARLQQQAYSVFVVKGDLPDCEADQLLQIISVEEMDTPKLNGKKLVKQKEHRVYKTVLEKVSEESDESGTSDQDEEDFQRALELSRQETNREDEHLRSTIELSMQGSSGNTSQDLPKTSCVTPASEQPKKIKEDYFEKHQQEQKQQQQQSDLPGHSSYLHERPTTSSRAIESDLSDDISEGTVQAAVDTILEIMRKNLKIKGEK

Bap1 = Bap1 (Homo sapiens, UniProt Q92560); assay: Suramin selectivity, Ub-Rhodamine 110 assay; format: biochemical
Chain of Bap1 (Q92560 whole entry): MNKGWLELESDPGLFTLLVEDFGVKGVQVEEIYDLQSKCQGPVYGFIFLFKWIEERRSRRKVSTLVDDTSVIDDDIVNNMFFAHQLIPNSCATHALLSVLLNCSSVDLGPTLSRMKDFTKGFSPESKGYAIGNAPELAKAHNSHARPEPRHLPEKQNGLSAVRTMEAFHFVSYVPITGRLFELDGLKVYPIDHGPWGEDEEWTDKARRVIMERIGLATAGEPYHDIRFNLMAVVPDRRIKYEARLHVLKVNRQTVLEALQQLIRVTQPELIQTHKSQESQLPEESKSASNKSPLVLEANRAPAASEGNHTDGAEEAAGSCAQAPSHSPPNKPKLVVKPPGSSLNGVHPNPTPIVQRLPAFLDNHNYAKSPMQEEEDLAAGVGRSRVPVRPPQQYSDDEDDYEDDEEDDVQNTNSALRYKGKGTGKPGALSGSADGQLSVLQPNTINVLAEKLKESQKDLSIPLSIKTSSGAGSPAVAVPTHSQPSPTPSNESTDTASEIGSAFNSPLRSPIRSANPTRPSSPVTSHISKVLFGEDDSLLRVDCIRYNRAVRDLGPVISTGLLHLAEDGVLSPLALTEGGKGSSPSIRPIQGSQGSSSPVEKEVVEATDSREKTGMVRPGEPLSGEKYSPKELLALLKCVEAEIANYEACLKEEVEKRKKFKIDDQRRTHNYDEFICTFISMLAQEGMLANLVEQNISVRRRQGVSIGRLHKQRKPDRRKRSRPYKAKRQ

[4] = test system: pool of cellular DUBs (293T cell lysate); assay: Cellular DUB activity in 293T total cell lysate, Ub-Rhodamine 110; format: biochemical; conditions: 10 μM suramin, 293T lysate
KSHV = conditions: suramin up to 10 μM; for KSHV genome copy number: qPCR of supernatant of reactivated cells
UCH-L1 = target: T3, UCH-L1 (Homo sapiens, UniProt P09936); assay: Suramin selectivity, Ub-Rhodamine 110 assay; format: biochemical
T3 sequence (P09936 1-223): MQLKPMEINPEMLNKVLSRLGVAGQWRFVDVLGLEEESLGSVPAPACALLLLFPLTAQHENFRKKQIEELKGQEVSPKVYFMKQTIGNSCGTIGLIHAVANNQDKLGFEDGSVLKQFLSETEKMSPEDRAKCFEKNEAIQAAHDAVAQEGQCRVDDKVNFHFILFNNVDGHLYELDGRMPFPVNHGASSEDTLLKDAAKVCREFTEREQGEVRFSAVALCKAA

Cezanne = target: T4, Cezanne (Homo sapiens, UniProt Q6GQQ9); assay: Suramin selectivity, Ub-Rhodamine 110 assay; format: biochemical
T4 sequence (Q6GQQ9 1-843): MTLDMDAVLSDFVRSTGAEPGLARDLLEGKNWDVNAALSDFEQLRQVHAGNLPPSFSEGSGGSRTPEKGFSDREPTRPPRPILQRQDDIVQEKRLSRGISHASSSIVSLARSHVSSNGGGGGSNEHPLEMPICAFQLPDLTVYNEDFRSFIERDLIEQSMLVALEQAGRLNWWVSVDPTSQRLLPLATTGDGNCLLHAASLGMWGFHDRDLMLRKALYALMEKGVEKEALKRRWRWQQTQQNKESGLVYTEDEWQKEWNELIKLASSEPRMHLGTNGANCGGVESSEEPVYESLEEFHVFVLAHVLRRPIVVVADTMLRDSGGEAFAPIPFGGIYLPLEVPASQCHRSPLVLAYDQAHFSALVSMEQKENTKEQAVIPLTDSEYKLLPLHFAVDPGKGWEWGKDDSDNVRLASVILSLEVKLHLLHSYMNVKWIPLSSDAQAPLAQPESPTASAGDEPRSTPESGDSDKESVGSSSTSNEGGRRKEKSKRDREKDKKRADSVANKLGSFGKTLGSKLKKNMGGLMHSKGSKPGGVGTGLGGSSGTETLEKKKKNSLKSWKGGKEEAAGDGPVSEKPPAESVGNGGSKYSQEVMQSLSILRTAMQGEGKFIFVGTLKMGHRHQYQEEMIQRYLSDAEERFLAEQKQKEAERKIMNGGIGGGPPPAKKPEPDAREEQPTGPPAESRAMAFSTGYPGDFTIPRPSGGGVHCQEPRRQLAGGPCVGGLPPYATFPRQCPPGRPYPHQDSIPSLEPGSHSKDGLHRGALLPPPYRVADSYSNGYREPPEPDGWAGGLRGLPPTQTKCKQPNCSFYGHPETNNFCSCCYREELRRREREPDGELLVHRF

USP8c = target: T5, USP8c (Homo sapiens, UniProt P40818); assay: Suramin selectivity, Ub-Rhodamine 110 assay; format: biochemical
T5 sequence (P40818 777-1109 limits assumed): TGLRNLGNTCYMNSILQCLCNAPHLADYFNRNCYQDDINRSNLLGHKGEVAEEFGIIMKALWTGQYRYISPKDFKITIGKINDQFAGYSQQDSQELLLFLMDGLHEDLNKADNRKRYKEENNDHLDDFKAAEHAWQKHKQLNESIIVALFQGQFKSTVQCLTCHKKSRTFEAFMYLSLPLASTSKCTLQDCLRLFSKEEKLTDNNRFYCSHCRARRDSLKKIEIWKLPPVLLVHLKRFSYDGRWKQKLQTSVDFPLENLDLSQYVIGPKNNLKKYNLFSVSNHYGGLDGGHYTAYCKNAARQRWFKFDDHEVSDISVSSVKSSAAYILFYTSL

UCH-L5 = target: T6, UCH-L5 (Homo sapiens, UniProt Q9Y5K5); assay: Suramin selectivity, Ub-Rhodamine 110 assay; format: biochemical
T6 sequence (Q9Y5K5 1-329): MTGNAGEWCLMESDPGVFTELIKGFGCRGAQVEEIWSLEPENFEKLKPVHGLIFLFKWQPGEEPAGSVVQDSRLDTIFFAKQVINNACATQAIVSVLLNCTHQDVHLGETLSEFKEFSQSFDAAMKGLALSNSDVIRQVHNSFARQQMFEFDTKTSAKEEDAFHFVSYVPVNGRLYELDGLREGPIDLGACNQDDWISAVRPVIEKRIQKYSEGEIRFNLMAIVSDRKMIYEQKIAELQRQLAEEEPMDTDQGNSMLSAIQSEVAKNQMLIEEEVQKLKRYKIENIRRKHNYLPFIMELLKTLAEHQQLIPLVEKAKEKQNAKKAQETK

PLPro = PLPro (Severe acute respiratory syndrome coronavirus, UniProt P0C6X7); assay: biochemical
JosD2 = target: T7, JosD2 (Homo sapiens, UniProt Q8TAC2); assay: Suramin selectivity, Ub-Rhodamine 110 assay; format: biochemical
T7 sequence (Q8TAC2 1-188): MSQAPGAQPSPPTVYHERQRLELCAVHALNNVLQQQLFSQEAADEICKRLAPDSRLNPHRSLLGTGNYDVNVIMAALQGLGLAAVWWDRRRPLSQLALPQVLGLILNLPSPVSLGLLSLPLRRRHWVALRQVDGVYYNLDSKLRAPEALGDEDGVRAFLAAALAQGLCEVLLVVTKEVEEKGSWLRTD

[5] = target: KSHV ORF64 1–205 N terminal fragment (Human herpesvirus 8 type P, UniProt Q2HR64); assay: ORF64 DUB activity in Ub-Rhodamine 110 assay; conditions: 10 μM suramin, 30 minutes with Ub-Rhodamine 110
Chain of KSHV ORF64 1–205 N terminal fragment (Q2HR64 1-205): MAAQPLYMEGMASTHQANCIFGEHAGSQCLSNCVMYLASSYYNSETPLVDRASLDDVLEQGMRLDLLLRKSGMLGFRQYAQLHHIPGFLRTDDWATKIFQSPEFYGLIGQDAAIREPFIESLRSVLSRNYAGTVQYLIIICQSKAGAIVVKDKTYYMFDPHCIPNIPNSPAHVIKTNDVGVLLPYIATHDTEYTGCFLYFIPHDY

BPLF1 1–246 [6] = target: T1, BPLF1 1–246; assay: Suramin selectivity, Ub-Rhodamine 110 assay; format: biochemical, Epstein Barr Virus (EBV)
EBV = EBV infectious virus production, titered on Raji cells; conditions: 293 EBV+ cells induced with BZLF1, 48 h, at the concentrations tested
293 EBV+ cells = assay: Cell viability by trypan blue exclusion; conditions: 48 h, concentrations up to 10 μM

T1 sequence (P03186 1-246): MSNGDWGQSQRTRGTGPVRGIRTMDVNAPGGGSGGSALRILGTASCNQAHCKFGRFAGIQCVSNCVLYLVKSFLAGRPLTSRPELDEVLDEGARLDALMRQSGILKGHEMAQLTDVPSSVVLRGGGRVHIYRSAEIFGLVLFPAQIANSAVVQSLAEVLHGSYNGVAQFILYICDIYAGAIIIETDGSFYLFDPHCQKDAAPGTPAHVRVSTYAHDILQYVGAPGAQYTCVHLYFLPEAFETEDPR

CN(N=O)c1ccc(O)c(O)c1 [Me-3,4-dephostatin]
IC50 (BPLF1 1–246 [1]): > 10 µM

O=C1C(SCCO)=C(SCCO)C(=O)c2ccccc21 [NSC 95397]
inhibition of K63-linked ubiquitin chain cleavage (BPLF1 1–246 [2]): inhibited K63-linked chain cleavage
IC50 (BPLF1 1–246 [1]): 4.8 µM

O=C(Nc1cccc(C(=O)Nc2ccc(S(=O)(=O)O)c3cc(S(=O)(=O)O)cc(S(=O)(=O)O)c23)c1)Nc1cccc(C(=O)Nc2ccc(S(=O)(=O)O)c3cc(S(=O)(=O)O)cc(S(=O)(=O)O)c23)c1 [NF 023]
IC50 (BPLF1 1–246 [1]): 6.1 µM

Cc1ccc(C(=O)Nc2ccc(S(=O)(=O)O)c3cc(S(=O)(=O)O)cc(S(=O)(=O)O)c23)cc1NC(=O)c1cccc(NC(=O)Nc2cccc(C(=O)Nc3cc(C(=O)Nc4ccc(S(=O)(=O)O)c5cc(S(=O)(=O)O)cc(S(=O)(=O)O)c45)ccc3C)c2)c1 [suramin, Suramin sodium salt]
IC50 (BPLF1 1–246 [3]): 0.98 µM
IC50 (Atax3L): 2.6 µM
inhibition of K63-linked ubiquitin chain cleavage (BPLF1 1–246 [2]): inhibited K63-linked chain cleavage
IC50 (Bap1): 3.4 µM
inhibition of the pool of cellular DUBs [4]: about 50%
KSHV reactivation from latency (KSHV; % reactivation of latently infected cells): no significant effect
KSHV genome copy number (KSHV): no significant effect
KSHV genome copy number (KSHV; listed as Suramin): does not inhibit genome copy production
KSHV infectious virus production (KSHV; supernatants 72 h post dox, infection of naïve 293 cells): no significant effect
IC50 (UCH-L1): 3.6 µM
IC50 (Cezanne): 1.6 µM
IC50 (USP8c): 3 µM
IC50 (UCH-L5): 1.5 µM
IC50 (PLPro): 3.2 µM
IC50 (JosD2): 28 µM
decrease in ORF64 DUB activity [5]: > 80%
IC50 (BPLF1 1–246 [6]): 3.3 µM

O=C(O)C1=CC(=C(c2ccc(O)c(C(=O)O)c2)c2ccc(O)c(C(=O)O)c2)C=CC1=O [Aurintricarboxylic acid]
IC50 (BPLF1 1–246 [3]): 3.3 µM

CC1(C)CCC2=C(O1)c1ccccc1C(=O)C2=O [beta-lapachone]
IC50 (BPLF1 1–246 [3]): 2.5 µM
inhibition of K63-linked ubiquitin chain cleavage (BPLF1 1–246 [2]): inhibited K63-linked chain cleavage

OC[C@H]1O[C@H]([S-])[C@H](O)[C@@H](O)[C@@H]1O.[Au+] [Aurothioglucose]
inhibition of K63-linked ubiquitin chain cleavage (BPLF1 1–246 [2]): inhibited K63-linked chain cleavage
infectious virus production (in words) (EBV): did not result in decreased virus production
cell growth or viability (293 EBV+ cells): not inhibit cell growth or viability
IC50 (BPLF1 1–246 [1]): 2.5 µM

Cc1nc(N=Nc2cc(S(=O)(=O)O)c3cc([N+](=O)[O-])cc(S(=O)(=O)O)c3c2)c(COP(=O)(O)O)c(C=O)c1O [PPNDS tetrasodium]
IC50 (BPLF1 1–246 [1]): > 10 µM

Ub-aldehyde
inhibition of BPLF1 1–246 DUB activity (BPLF1 1–246 [1]; 5 μM Ub-aldehyde (low signal control)): approximately 95%

C[C@]12C=CC(=O)C=C1CC[C@@H]1C2=CC[C@]2(C)[C@@H](C(=O)CN3CCN(c4cc(N5CCCC5)nc(N5CCCC5)n4)CC3)CC[C@@H]12 [U-74389G maleate]
IC50 (BPLF1 1–246 [1]): 3.4 µM

Cc1cc2c(C(C)C)c(O)c(O)c(C=O)c2c(O)c1-c1c(C)cc2c(C(C)C)c(O)c(O)c(C=O)c2c1O [Gossypol]
IC50 (BPLF1 1–246 [3]): 3 µM

NC(Cc1cc(O)c(O)cc1O)C(=O)O (racemic) [6-Hyd roxy-DL-DOPA]
IC50 (BPLF1 1–246 [1]): > 10 µM
